Experimental data reported in patent US20110124607A1, “COMPOSITION FOR REGULATION CELLULAR SENESCENCE COMPRISING LYSOPHOSPHATIDIC ACID AND INHIBITOR OF ADENYLYL CYCLASE AS ACTIVE INGREDIENTS” (priority 2008, published 2011).

How the values were obtained:
p21waf1/cip1 = assay: Immuno-blotting of p21waf1/cip1; format: cell-based, human; conditions: 10 mM AMPKI, 10 mM AICAR
Procedure: (§1) (A) and (B): Young and senescent cells were serum-starved for 2 days, followed by treatment with 10 mM of AMPK inhibitor […]) or 10 mM of AMPK activator AICAR(B) for 4 days. Proteins were extracted from the treated cells and the levels of AMPKα and p-Thr172-AMPKα, total p53, p-Ser15-p53 and […] measured by immuno-blotting. (C) and (D): Young cells (C) and senescent cells (D) were treated with 10 mM AMPKI or 10 mM AICAR and cultured for 4 days, followed by measurement of cell proliferation by cell counting. At this time, the experiment was repeated three times (p<0.001). (A) and (B) are photographs illustrating the results of immuno-blotting. Precisely, sub-cultured young cells (PD 18: A) and senescent cells (PD 64: B) were treated with 30 μM of LPA […] and ACI singly or together, followed by further culture for 1, 2, and 4 days. Proteins were extracted from the cultured cells and the levels of AMPKα, […] β-actin were quantified by immuno-blotting. (A) and (B) are photographs illustrating the results of immuno-blotting. Precisely, senescent cells (PD 64) were pre-treated with 10 mM of PKA inhibitor Rp-cAMP for one hour, followed by treatment with LPA(A) or ACI(B). After culturing the cells for 1, 2, and 4 days, proteins were extracted from the cultured cells and the levels of AMPKα, […] β-actin were quantified by immuno-blotting using 45 μg of the protein. To analyse protein expression, human fibroblasts were lysed in cold lysis buffer (25 mM Hepes, pH 8.0, 150 mM NaCl, 1 mM EDTA, 1 mM Na3VO4, 1 mM NaF, 1% Triton X-100 and protease inhibitors), followed by centrifugation at 4° C. at 9,000 rpm for 10 minutes to obtain supernatant. Protein in the extract was quantified […]. SDS-PAGE electrophoresis was performed with equal amount of the protein (45 μg) to separate. The separated protein was transferred onto NC membrane from the electrophoresis gel. Non-specific protein binding was blocked by blocking the blot (transferred NC membrane) using TTBS […] containing 5% skim milk for one hour. Then, antigen-antibody reaction was induced with diluted primary antibody at 4° C. for overnight. The blot was washed with TTBS, followed by reaction with horseradish peroxidase conjugated anti-IgGs diluted in TTBS containing 5% skim milk (1:5000) at room temperature for one hour. The blot was washed again with TTBS to eliminate non-specific binding of antigen-antibody. Photographs were developed/printed on X-ray film (Kodak) using ECL kit (Pierce) containing peroxidase substrate to identify each protein.

p-Thr172-AMPKα = assay: Immuno-blotting of p-Thr172-AMPKα; format: cell-based, human; conditions: 30 μM LPA, 300 μM ACI, 10 mM AMPKI, 10 mM AICAR, up to day 4
Procedure: as §1

[1] = system: young cells (human fibroblasts); assay: Cell proliferation by counting live cells (trypan blue), young cells; format: cell-based; conditions: serum-starved 2 days, counted day 1, 2, 4, 30 μM LPA, 300 μM ACI, 10 mM AMPKI, 10 mM AICAR
Procedure: (§2) Human fibroblasts were prepared by primary culture of foreskin of a newborn baby (Boyce and Ham, 1983). The primary culture was performed in DMEM supplemented with 10% FBS and 1% antibiotics. The protein contents of young cells from the early stage of sub-culture, with a population doubling (PD) of less than 25, were compared to those of at least PD 65-70 senescent cells. […] In senescent cells, the activity of beta-galactosidase was increased and cell proliferation was reduced (Yeo et al., 2000).
(§3) Prior to LPA and ACI treatment, cells were grown for 1-2 days to 60-70% sub-confluence in DMEM-containing culture medium, and then serum-starved to quiescence (that is Go/G1 arrest) by incubation in a serum-free medium containing 0.1% bovine serum albumin (BSA) for 2 days. Young and senescent cells were treated with LPA, ACI, LPA+ACI, AMPKI and AICAR, respectively. Live cells were measured after staining the cells with trypan blue on day 1, day 2 and day 4 to confirm cell proliferation.
(§4) Cell proliferation and cAMP level were increased by LPA in senescent cells (Yeo et al., 2002). The AC inhibitor (ACI) was added to reduce cAMP which had been increased by LPA. And then, cell proliferation was investigated. Cells were cultured in serum-free medium for 2 days to arrest them in G0/G1 phase. Then, the cells were treated with LPA, ACI or LPA+ACI. Total cell number was measured on day 1, day 2 and day 4, or the cells entered into S phase were counted to evaluate cell proliferation. When young cells were treated with 300 μM of ACI, cell proliferation was reduced, compared with control (FIG. 1A). In the meantime, when senescent cells were treated with 300 μM of ACI, cell proliferation was increased, compared with control (FIG. 1B).

p-Ser15-p53 = assay: Immuno-blotting of p-Ser15-p53; format: cell-based, human; conditions: 10 mM AMPKI, 10 mM AICAR
Procedure: as §1

[2] = system: senescent cells (human fibroblasts); assay: Cell proliferation by counting live cells (trypan blue), senescent cells; format: cell-based; conditions: serum-starved 2 days, counted day 1, 2, 4, 30 μM LPA, 300 μM ACI, 10 mM AMPKI, 10 mM AICAR
Procedure: as §2, §3, §4

[3] = senescent cells, 30 μM LPA, 300 μM ACI

NC(=O)c1ncn([C@@H]2O[C@H](CO)[C@@H](O)[C@H]2O)c1N [AICAR]
p21 expression (immuno-blotting) (p21waf1/cip1; [3]): increased | p21 expression (immuno-blotting) (p21waf1/cip1; young cells, 4 days): increased | Thr172-AMPKα phosphorylation (p-Thr172-AMPKα; senescent cells): increased | Thr172-AMPKα phosphorylation (p-Thr172-AMPKα; young cells): increased | cell proliferation (cell number) compared with control [1]: suppressed | p-Ser15-p53 expression (p-Ser15-p53; [3]): increased | p-Ser15-p53 expression (p-Ser15-p53; young cells, 4 days): increased | cell proliferation (cell number) compared with control [2]: suppressed
